Structures are written as SMILES. Read-outs that look alike come from different tables or passages of the source.

These results are taken from patent US11827663B2, “Use of UAP inhibitors to inhibit flux through the hexosamine biosynthetic pathway” (The Johns Hopkins University, priority 2014, dated 2023).

Holding throughout (type): cell-based
In assay [1] the test system is SW1990 cells. In words: Cell count / cell proliferation assay in SW1990 cells. The settings on record: for IC50: cells counted after 48 hours incubation, normalized to controls, read-out: Estimated IC50 values, SW1990; for effect on SW1990 cell numbers / proliferation: in words. Here is the method:
FIG. 3 depicts the result of cell count assays after two days of incubation with an exemplary compound, Ac4Glc2Bz. The cells treated with the compound are, respectively, SW1990 and PANC-1, which are pancreatic cancer cell lines. Meanwhile, control samples were treated with solvent vehicle of 2.5 μL DMSO per 1 mL of medium.
(§1) FIGS. 5A and 5B show the results of cell toxicity experiments that were conducted on SW1990 and PANC-1 cells with the analogs indicated. Cells were counted after incubation with each analog for 48 hours. Cell counts were then normalized to controls, data was log transformed, and IC50 values were calculated. […]
(§2) Cells were incubated at a range of concentrations of the UAP inhibitors (typically at 0, 10, 25, 50, 100, and 150 μM) and the number of cells were quantified, typically by automated counting (e.g., with a Coulter Counter Z2 instrument) after 1, 2, 3, or 5 days of exposure.

Assay [2] concerns PANC-1 cells. As to the kind of experiment: Cell count / cell proliferation assay in PANC-1 cells. The settings on record: for IC50: cells counted after 48 hours incubation, normalized to controls, read-out: Estimated IC50 values, PANC-1; for effect on PANC-1 cell numbers / proliferation: in words. As to the method: as §1, §2
Assay [3] concerns primary human adipose stem cells (hASCs). As to the kind of experiment: Cell count assay in control cells (human ASCs). The settings on record: Homo sapiens, 48 h; two days of exposure; 300 is the highest concentration tested. An excerpt: FIG. 4A and FIG. 4B depict histogram results of cell count assays after two days of exposure to each analog in cancer cell lines (SW1990 and PANC-1) and in control cells (human ASCs). […] In all cases, IC50 values were greater than 300 which is the highest concentration tested, for the ACSs, while the Ac4Glc2Bz analogs and Ac4Gal2Bz analogs were effective to reduce cell numbers in both cancer cell lines.

`CC(=O)OCC1OC(OC(C)=O)[C@@H](NC(=O)C2CCCCC2)[C@@H](OC(C)=O)[C@H]1OC(C)=O` (stereo partly shown) [Ac4GlcNCyx]: the IC50 (in general, the point on the concentration scale where inhibition reaches its midpoint) was 160.9 ± 1.4 µM in assay [1] (Homo sapiens, SW1990) and 84.1 ± 1.5 µM in assay [2] (Homo sapiens, PANC-1).

As for `CC(=O)OCC1OC(OC(C)=O)[C@@H](NC(=O)c2ccccc2)[C@@H](OC(C)=O)[C@H]1OC(C)=O` (stereo partly shown) [Ac4Gal2Bz], the IC50 is more than 300 µM in assay [3]; 39.1 ± 2.2 µM in assay [1] (Homo sapiens, SW1990); 107 ± 1.1 µM in assay [2] (Homo sapiens, PANC-1). For the same compound, the “effect on SW1990 cell numbers / proliferation” value in assay [1] was “remarkable inhibition”.

As for `CC(=O)OCC1OC(O)[C@@H](NC(=O)c2ccccc2)[C@@H](OC(C)=O)[C@@H]1OC(C)=O` (stereo partly shown) [3,4,6-O—Ac3Glc2Bz], in assay [1], the IC50 was 37.1 ± 1.8 µM and the “effect on SW1990 cell numbers / proliferation” value was “remarkable inhibition”. For the same compound, in assay [2], the IC50 is 76.1 ± 1.6 µM.

`CC(=O)OCC1OC(OC(C)=O)[C@H](NC(=O)c2ccccc2)[C@@H](OC(C)=O)[C@H]1OC(C)=O` (stereo partly shown) [Ac4Man2Bz]: the IC50 in assay [1] (Homo sapiens, SW1990) is 148 ± 1.5 µM; in assay [2] (Homo sapiens, PANC-1), 100 ± 1.8 µM. The “effect on SW1990 cell numbers / proliferation” value in assay [1] is recorded as “substantially low effect”. In addition, the “effect on PANC-1 cell numbers / proliferation” value in assay [2] is on record as “substantially low effect”.

As to `CC(=O)OC1OC(CO)C(OC(C)=O)C(OC(C)=O)C1NC(=O)c1ccccc1` (stereo not shown) [1,3,4-O-Ac3Glc2Bz], the “effect on SW1990 cell numbers / proliferation” value in assay [1] is “consistently reduced cell numbers”. Further, the “effect on PANC-1 cell numbers / proliferation” value in assay [2] is listed as “consistently reduced cell numbers”.

Consider `CC(=O)OC[C@H]1OC(OC(C)=O)[C@H](NC(=O)c2ccccc2O)[C@@H](OC(C)=O)[C@@H]1OC(C)=O` (stereo partly shown) [Ac4Glc2NBz-2-OH], for which, in assay [1], the IC50 was 140.3 ± 1.4 µM and the “effect on SW1990 cell numbers / proliferation” value was “consistently reduced cell numbers”. Moreover, in assay [2], the IC50 is 49.9 ± 1.3 µM and the “effect on PANC-1 cell numbers / proliferation” value was “consistently reduced cell numbers”.
